Each structure is given as a SMILES string.

What all share (assay type): in vivo
In test [1] the test system is Echinochloa crus-galli. The experiment in a line: Test Example 12: herbicidal effect test by treatment during growing period in paddy field. The conditions noted are these: 120 g/10a; treatment seven days after sowing in flooded paddy pot; assessed 14 days after treatment. A digest of the protocol:
(§1)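 Seeds (30 per species) are sown shallowly into fertilized, puddled paddy soil kept under ~3 cm of water in a greenhouse. One week later, compound formulated as an emulsifiable concentrate is applied dropwise to the water at 120 g a.i./10 are. After 14 days, dry weights give percent suppression against untreated controls.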

Test [2] relates to Monochoria vaginalis. Described as above. The settings on record: 120 g/10a; treatment seven days after sowing in flooded paddy pot; assessed 14 days after treatment. The procedure, abridged:
as §1

Test [3] deals with Scirpus juncoides. The description is as above. The conditions noted are these: 120 g/10a; treatment seven days after sowing in flooded paddy pot; assessed 14 days after treatment. The procedure, abridged:
as §1

For test [4], the system named is Lindernia pyxidaria. The test is described as above. The settings on record: 120 g/10a; treatment seven days after sowing in flooded paddy pot; assessed 14 days after treatment. The procedure, abridged: as §1
Test [5] relates to Echinochloa crus-galli. Briefly: Test Example 11: herbicidal effect test by soil treatment in paddy field. The settings on record: 120 g/10a active ingredient, 14 days after treatment. A digest of the protocol: (§2)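 Dry weight at day 14 relative to untreated controls gives the suppression rate; duplicate pots. Treatment: 120 g a.i./10 are into paddy water at sowing.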
The subject of test [6] is Monochoria vaginalis. The description is as above. The conditions noted are these: 120 g/10a active ingredient, 14 days after treatment. The procedure, abridged:
as §2

In test [7] the test system is Scirpus juncoides. The description is as above. The settings on record: 120 g/10a active ingredient, 14 days after treatment. A digest of the protocol: as §2
In test [8] the test system is Lindernia pyxidaria. The test is described as above. The settings on record: 120 g/10a active ingredient, 14 days after treatment. The procedure, abridged:
as §2

The subject of test [9] is Echinochloa crus-galli. Briefly: Test Example 14: herbicidal effect test by foliage treatment in upland field. The settings on record: 7 days after sowing, 120 g/10a, 14 days after treatment. The procedure: (§3) This test was performed with two replications per one formulation concentration plot, and 14 days after the formulation treatments, the weed suppression rate (%) was determined according to the following equation (Math. 2). Weed suppression rate (%)=(1−average dry weight (g) of plants in treated plots/average dry weight (g) of plants in untreated plots)×100 [Math. 2]
(§4) A pot having a size of 36 cm^2 was filled with field soil (alluvial soil) and after uniformly mixing the soil of the surface layer of 1 cm with 20 grains of each weed seed of crabgrass, Echinochloa crus-galli, Chenopodium album and Amaranthus viridis, the surface layer was pressed lightly. Seven Days after the sowing, an emulsifiable concentrate prepared according to Formulation Example 15 by using the compound shown in Table 12 below was diluted with water, and the water-diluted formulation was sprayed on the soil surface at a ratio of 100 liter per 10 are. The application rate of the active ingredient, by conversion, corresponded to 120 g per 10 are. Fourteen Days after the formulation treatment, the herbicidal effect was evaluated by the same criteria as in Test Example 11.

The subject of the next test is Amaranthus viridis. Described as above. The settings on record: 7 days after sowing, 120 g/10a, 14 days after treatment. The procedure:
as §3, §4

A further test has as its system Chenopodium album. The description is as above. The settings on record: 7 days after sowing, 120 g/10a, 14 days after treatment. The procedure: as §4
A further test concerns crabgrass. The description is as above. The settings on record: 7 days after sowing, 120 g/10a, 14 days after treatment. The procedure: as §4

With `CC(C)N(C(=O)n1cnn(S(=O)(=O)C2CC2)c1=O)c1ccc(C(F)(F)F)cc1F` [Compound 11-217], the “Weed suppression rate (%) Echinochloa crus-galli” value in the test with Echinochloa crus-galli [1] and with Echinochloa crus-galli [5] was 100% throughout. In addition, the “Weed suppression rate (%) Monochoria vaginalis” value in the test with Monochoria vaginalis [2] is listed as 90%; in the test with Monochoria vaginalis [6], 100%. In addition, the “Weed suppression rate (%) Scirpus juncoides” value with Scirpus juncoides [3] and in the test on Scirpus juncoides [7] was 80% in each case. Moreover, the “Weed suppression rate (%) Lindemia pyxidaria” value was found to be 80% with Lindernia pyxidaria [4] and 100% in the test with Lindernia pyxidaria [8]. For the same compound, in the test with Echinochloa crus-galli [9], the “herbicidal effect, Echinochloa crus-galli” value is 100%. In the test on Amaranthus viridis, the “herbicidal effect, Amaranthus viridis” value is 60%. Besides, the “herbicidal effect, Chenopodium album” value with Chenopodium album came to 70%. In addition, in the test with crabgrass, the “herbicidal effect, Crabgrass” value is given as 100%.

In the case of `CC(C)N(C(=O)n1cnn(S(=O)(=O)C2CCCCC2)c1=O)c1cccc(F)c1` [Compound 11-285], the “Weed suppression rate (%) Echinochloa crus-galli” value with Echinochloa crus-galli [1] and in the test on Echinochloa crus-galli [5] was 90% in each case. The “Weed suppression rate (%) Monochoria vaginalis” value in the test with Monochoria vaginalis [2] and in the test on Monochoria vaginalis [6] was 80% throughout. Further, the “Weed suppression rate (%) Scirpus juncoides” value in the test with Scirpus juncoides [3] and in the test on Scirpus juncoides [7] was 90% in each case. The “Weed suppression rate (%) Lindemia pyxidaria” value in the test on Lindernia pyxidaria [4] and with Lindernia pyxidaria [8] was 80% in each case. Further, in the test on Echinochloa crus-galli [9], the “herbicidal effect, Echinochloa crus-galli” value was 80%. Further, the “herbicidal effect, Amaranthus viridis” value in the test with Amaranthus viridis came to 90%. Moreover, the “herbicidal effect, Chenopodium album” value with Chenopodium album is 80%. In addition, in the test on crabgrass, the “herbicidal effect, Crabgrass” value is on record as 90%.

As for `CC(C)N(C(=O)n1cnn(S(=O)(=O)C2CCCCC2)c1=O)c1cccc(F)c1F` [Compound 11-293], the “Weed suppression rate (%) Echinochloa crus-galli” value in the test with Echinochloa crus-galli [1] and in the test with Echinochloa crus-galli [5] was 100% each time. Also, the “Weed suppression rate (%) Monochoria vaginalis” value in the test on Monochoria vaginalis [2] and in the test on Monochoria vaginalis [6] was 100% throughout. Also, the “Weed suppression rate (%) Scirpus juncoides” value in the test with Scirpus juncoides [3] and in the test with Scirpus juncoides [7] was 100% throughout. The “Weed suppression rate (%) Lindemia pyxidaria” value in the test on Lindernia pyxidaria [4] and with Lindernia pyxidaria [8] was 100% throughout. In addition, in the test on Echinochloa crus-galli [9], the “herbicidal effect, Echinochloa crus-galli” value turned out to be 90%. The “herbicidal effect, Amaranthus viridis” value in the test on Amaranthus viridis was 60%. In the test on Chenopodium album, the “herbicidal effect, Chenopodium album” value stood at 70%. Further, the “herbicidal effect, Crabgrass” value in the test with crabgrass amounted to 100%.

For the compound `CC(C)N(C(=O)n1cnn(S(=O)(=O)C2CCCCC2)c1=O)c1c(F)c(F)cc(F)c1F` [Compound 11-299], the “Weed suppression rate (%) Echinochloa crus-galli” value in the test on Echinochloa crus-galli [1] and with Echinochloa crus-galli [5] was 100% in each case. The “Weed suppression rate (%) Monochoria vaginalis” value with Monochoria vaginalis [2] stood at 100%; in the test with Monochoria vaginalis [6], 70%. Further, the “Weed suppression rate (%) Scirpus juncoides” value in the test on Scirpus juncoides [3] and with Scirpus juncoides [7] was 100% throughout. Moreover, the “Weed suppression rate (%) Lindemia pyxidaria” value in the test with Lindernia pyxidaria [4] was 80%; in the test on Lindernia pyxidaria [8], 100%. The “herbicidal effect, Echinochloa crus-galli” value with Echinochloa crus-galli [9] is 100%. Besides, in the test on Amaranthus viridis, the “herbicidal effect, Amaranthus viridis” value is 60%. Also, in the test on Chenopodium album, the “herbicidal effect, Chenopodium album” value is 60%. In the test with crabgrass, the “herbicidal effect, Crabgrass” value was 100%.

For `CC(C)N(C(=O)n1cnn(S(=O)(=O)C2CCCCC2)c1=O)c1ccc(Cl)cc1Br` [Compound 11-306], the “Weed suppression rate (%) Echinochloa crus-galli” value is listed as 90% in the test on Echinochloa crus-galli [1] and 100% in the test with Echinochloa crus-galli [5]. In addition, the “Weed suppression rate (%) Monochoria vaginalis” value with Monochoria vaginalis [2] was 70%; in the test with Monochoria vaginalis [6], 60%. The “Weed suppression rate (%) Scirpus juncoides” value with Scirpus juncoides [3] and in the test on Scirpus juncoides [7] was 100% each time. In addition, the entries for the “Weed suppression rate (%) Lindemia pyxidaria” value in the test with Lindernia pyxidaria [4] and with Lindernia pyxidaria [8] were 70% and 80%, respectively. Besides, the “herbicidal effect, Echinochloa crus-galli” value in the test with Echinochloa crus-galli [9] stood at 60%. In the test on Amaranthus viridis, the “herbicidal effect, Amaranthus viridis” value amounted to 70%. The “herbicidal effect, Chenopodium album” value with Chenopodium album was determined as 70%. Moreover, the “herbicidal effect, Crabgrass” value in the test on crabgrass is 100%.

As to `CC(C)N(C(=O)n1cnn(S(=O)(=O)c2ccccc2F)c1=O)c1ccccc1` [Compound 11-391], the “Weed suppression rate (%) Echinochloa crus-galli” value in the test on Echinochloa crus-galli [1] and with Echinochloa crus-galli [5] was 90% each time. Besides, the results for the “Weed suppression rate (%) Monochoria vaginalis” value with Monochoria vaginalis [2] and in the test on Monochoria vaginalis [6] were 80% and 60%, respectively. The “Weed suppression rate (%) Scirpus juncoides” value in the test with Scirpus juncoides [3] and in the test on Scirpus juncoides [7] was 80% throughout. The “Weed suppression rate (%) Lindemia pyxidaria” value with Lindernia pyxidaria [4] and in the test with Lindernia pyxidaria [8] was 80% throughout. Besides, the “herbicidal effect, Echinochloa crus-galli” value with Echinochloa crus-galli [9] came to 60%. Further, in the test with Amaranthus viridis, the “herbicidal effect, Amaranthus viridis” value amounted to 40%. The “herbicidal effect, Chenopodium album” value in the test on Chenopodium album was determined as 40%. Moreover, in the test with crabgrass, the “herbicidal effect, Crabgrass” value came to 90%.

In the case of `CC(C)N(C(=O)n1cnn(S(=O)(=O)c2ccccc2F)c1=O)c1ccc(F)c(F)c1F` [Compound 11-405], the “Weed suppression rate (%) Echinochloa crus-galli” value with Echinochloa crus-galli [1] and in the test on Echinochloa crus-galli [5] was 100% throughout. For the same compound, the “Weed suppression rate (%) Monochoria vaginalis” value in the test with Monochoria vaginalis [2] and in the test on Monochoria vaginalis [6] was 100% each time. Besides, the “Weed suppression rate (%) Scirpus juncoides” value in the test with Scirpus juncoides [3] and in the test on Scirpus juncoides [7] was 100% in each case. Further, the “Weed suppression rate (%) Lindemia pyxidaria” value in the test with Lindernia pyxidaria [4] and with Lindernia pyxidaria [8] was 100% in each case. Further, the “herbicidal effect, Echinochloa crus-galli” value with Echinochloa crus-galli [9] turned out to be 90%. In addition, in the test on Amaranthus viridis, the “herbicidal effect, Amaranthus viridis” value is reported as 70%. Also, the “herbicidal effect, Chenopodium album” value in the test with Chenopodium album is recorded as 60%. Also, in the test with crabgrass, the “herbicidal effect, Crabgrass” value is given as 90%.

In the case of `CC(C)N(C(=O)n1cnn(S(=O)(=O)c2ccc(F)cc2)c1=O)c1ccccc1` [Compound 11-464], the “Weed suppression rate (%) Echinochloa crus-galli” value in the test on Echinochloa crus-galli [1] was determined as 90%; in the test on Echinochloa crus-galli [5], 100%. Besides, the “Weed suppression rate (%) Monochoria vaginalis” value in the test on Monochoria vaginalis [2] stood at 80%; in the test with Monochoria vaginalis [6] it was 60%. Moreover, the “Weed suppression rate (%) Scirpus juncoides” value amounted to 90% in the test on Scirpus juncoides [3] and 80% in the test with Scirpus juncoides [7]. Further, the figures for the “Weed suppression rate (%) Lindemia pyxidaria” value with Lindernia pyxidaria [4] and in the test with Lindernia pyxidaria [8] were 60% and 80%, respectively. Besides, in the test on Echinochloa crus-galli [9], the “herbicidal effect, Echinochloa crus-galli” value turned out to be 60%. Further, in the test with Amaranthus viridis, the “herbicidal effect, Amaranthus viridis” value is 50%. The “herbicidal effect, Chenopodium album” value in the test with Chenopodium album is 50%. In the test on crabgrass, the “herbicidal effect, Crabgrass” value stood at 90%.

With `Cc1ccc(S(=O)(=O)n2ncn(C(=O)N(c3c(F)cc(F)cc3F)C(C)C)c2=O)cc1` [Compound 11-641], the “Weed suppression rate (%) Echinochloa crus-galli” value with Echinochloa crus-galli [1] and in the test on Echinochloa crus-galli [5] was 100% each time. Further, the results for the “Weed suppression rate (%) Monochoria vaginalis” value with Monochoria vaginalis [2] and in the test on Monochoria vaginalis [6] were 90% and 80%, respectively. The “Weed suppression rate (%) Scirpus juncoides” value in the test on Scirpus juncoides [3] and in the test with Scirpus juncoides [7] was 100% in each case. Also, the figures for the “Weed suppression rate (%) Lindemia pyxidaria” value in the test on Lindernia pyxidaria [4] and with Lindernia pyxidaria [8] were 80% and 100%, respectively. Also, the “herbicidal effect, Echinochloa crus-galli” value with Echinochloa crus-galli [9] was 100%. Also, the “herbicidal effect, Amaranthus viridis” value in the test with Amaranthus viridis came to 60%. The “herbicidal effect, Chenopodium album” value with Chenopodium album is 70%. Further, in the test with crabgrass, the “herbicidal effect, Crabgrass” value was determined as 90%.

On to `Cc1ccc(S(=O)(=O)n2ncn(C(=O)N(c3ccc(Cl)cn3)C(C)C)c2=O)cc1` [Compound 11-661], for which the “Weed suppression rate (%) Echinochloa crus-galli” value in the test with Echinochloa crus-galli [1] and with Echinochloa crus-galli [5] was 100% in each case. In addition, the “Weed suppression rate (%) Monochoria vaginalis” value with Monochoria vaginalis [2] is reported as 100%; in the test on Monochoria vaginalis [6], 80%. For the same compound, the “Weed suppression rate (%) Scirpus juncoides” value in the test on Scirpus juncoides [3] and with Scirpus juncoides [7] was 90% each time. In addition, the “Weed suppression rate (%) Lindemia pyxidaria” value in the test on Lindernia pyxidaria [4] and in the test on Lindernia pyxidaria [8] was 100% each time. Besides, the “herbicidal effect, Echinochloa crus-galli” value in the test with Echinochloa crus-galli [9] is on record as 90%. In addition, the “herbicidal effect, Amaranthus viridis” value in the test on Amaranthus viridis worked out at 0%. Also, the “herbicidal effect, Chenopodium album” value in the test on Chenopodium album amounted to 0%. In addition, the “herbicidal effect, Crabgrass” value in the test on crabgrass worked out at 70%.

These data come from patent US11076595B2, “1-(n,n-disubstituted carbamoyl) 4-(substituted sulfonyl)triazolin-5-one derivative, 4-(n,n-disubstituted carbamoyl) 1-(substituted sulfonyl)triazolin-5-one derivative, and herbicide containing said derivative as active ingredient” (HOKKO CHEMICAL INDUSTRY CO., LTD., priority 2017, dated 2021).
